US12668589B2, “N-formamidopyrazoline derivative as P2X3 receptor antagonist and use thereof” (HANGZHOU WESTAN PHARMACEUTICAL TECHNOLOGY CO., LTD, priority 2020, dated 2026)
Read-outs that look alike come from different tables or passages of the source.

Experiments:
[1] = Liver microsomal enzyme stability test; assay type: in vitro ADME; details: Human liver microsomes 0.5 mg/mL, 1 μM compound, 1 mM NADPH, 37° C.; for half-life at 1 μM: read-out: t1/2 (=0.693/k, min)
Method: An LC-MS/MS method, wherein A liquid phase method adopts a gradient elution method. Chromatographic Column: ACQUITY UPLC® BEH C18 (2.1 mm×50 mm, 1.7 μm); Flow Rate: 0.35 mL/min; Injection Volume: 1 μL (YS001), 3 μL (testosterone); Column Temperature: 40° C.; Automatic Sampler Temperature: 4° C.; Mobile Phase Compositions: mobile phase A: 0.1% formic acid water, and mobile phase B: acetonitrile. Mass spectrometry conditions adopt an ESI source, and positive ion and multiple reaction monitoring (MRM) modes were used for mass spectrometry analysis.
Liver microsome incubation samples were taken, in which 400 μL of an acetonitrile solution containing an internal standard (1 ng/mL loratadine) was added for a termination reaction. Even vortex mixing was conducted at 2,500 rpm. Centrifuging was conducted for 10 minutes at 20,000 rcf at 4° C. Supernatants were taken into clean lined tubes. Contents of prototype drugs were detected by LC-MS/MS.
Metabolic rate test: human liver microsomes were taken, unfrozen and thawed on ice, and gently shaken evenly. […] 80 μL of the above solution was pipetted, and pre-incubated for 5 minutes in a 37° C. water bath, then, 20 μL of a 5 mM NADPH solution was added, and incubating was conducted in a 37° C. water bath. […] After reaction for 0, 10, 30, 60, and 90 minutes, the reaction was terminated with 4 times the volume of acetonitrile (containing 1 ng/mL internal standard loratadine). Even vortex mixing was conducted. High-speed centrifuging was conducted for 10 minutes at 20,000 rcf at 4° C. Supernatants were taken for LC-MS/MS detection. Each incubation sample was subjected to a parallel test in triplicate. Positive control was metabolic samples of microsomes of corresponding species to a positive drug testosterone (1 μM). The reaction was terminated with 4 times the volume of acetonitrile (containing 1 ng/mL internal standard loratadine). Incubation time points were 0, 30, 60 minutes.
Analyst 1.6.3 software was used for data collecting. After integration parameters were optimized, target chromatographic peaks were automatically integrated, individual chromatographic peaks were not allowed to be integrated separately or manually, and retention time and a peak area were calculated. Data was collected by Analyst 1.6.3, and subjected to integration processing to obtain the retention time and the peak area, and a peak area ratio of an analyte to an internal standard was calculated. Then, Microsoft Office Excel was used for secondary processing to calculate a half-life period t1/2 and a clearance rate CLint thereof. A residual percentage (% Control) of tested compounds was calculated from a ratio of a concentration of a non-zero time point sample to a concentration of a zero-time sample. Ln (% Control) was plotted against incubation time and subjected to linear fitting. An elimination constant (ke, 1/min), an elimination half-life period (t1/2, min) and an in-vitro intrinsic clearance rate (CLint, μL/(mg·min)) of the tested compounds were calculated. T1/2=0.693/ke, CLint=ke/Cprotein (Note: ke is a slope, and Cprotein is a protein concentration.)

rP2X3 = target: T1, rP2X3 (Rattus norvegicus, UniProt P49654); assay: Inhibitory activity against P2X3 in rats (electrophysiological method); assay type: cell-based
T1 construct: expressed in transfected cells; host or cells: HEK293
T1 sequence (P49654 1-397): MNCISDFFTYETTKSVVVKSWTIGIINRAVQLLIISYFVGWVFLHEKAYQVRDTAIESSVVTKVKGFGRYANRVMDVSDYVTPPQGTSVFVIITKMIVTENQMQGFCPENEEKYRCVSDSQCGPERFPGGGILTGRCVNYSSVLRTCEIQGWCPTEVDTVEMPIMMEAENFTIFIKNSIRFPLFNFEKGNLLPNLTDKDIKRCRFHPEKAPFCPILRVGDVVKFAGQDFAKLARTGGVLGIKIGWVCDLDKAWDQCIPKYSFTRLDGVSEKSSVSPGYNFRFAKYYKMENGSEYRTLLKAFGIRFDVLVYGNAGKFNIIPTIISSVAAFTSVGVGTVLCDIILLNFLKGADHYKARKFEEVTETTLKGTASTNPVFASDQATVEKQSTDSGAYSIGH

[2] = In-vivo pharmacokinetic experiments on rats; parameters: species or system SD rats; details: for clearance / half-life / Cmax / Vd / Tmax / bioavailability: both sexes, SD, plasma; for Vd: read-out: Vss
Method: SD rats were used, half male and half female, which were administered with compounds by intravenous injection (3 mg/kg), intraperitoneal injection (10 mg/kg) or gavage (30 mg/kg) at different doses. At different time points after administration, blood was collected into EDTA blood sample collection tubes. Plasma was separated by centrifugation and stored at −20° C. pending analysis.
Standard curve and quality control sample preparation and processing: a compound stock solution was taken and diluted with 50% methanol water to make standard working solutions containing each compound concentration of 20 to 10,000 ng/mL, and 60, 600, 6,000 ng/mL quality control working solutions. 47.5 μL of blank rat plasma was taken, respectively, in which 2.50 μL of the standard curve working solutions and quality control working solutions were added to prepare standard curve samples with each compound concentration of 1.00 to 500.00 ng/mL and quality control samples with concentrations of 3.00, 30.00 and 300.00 ng/mL. 200 μL of acetonitrile (containing 5 ng/mL internal standard verapamil) was added into each sample. After vortex oscillation for 3 minutes, centrifuging was conducted for 15 minutes at 20,000 rcf at 4° C. Supernatants were taken for LC-MS/MS analysis.
Compound blood sample processing: 5 μL of plasma samples were taken. 45 μL of Blank rat plasma was added. 200 μL of Acetonitrile (containing 5 ng/mL internal standard verapamil) was added. After vortex oscillation for 3 minutes, centrifuging was conducted for 15 minutes at 20,000 rcf at 4° C. Supernatants were taken for LC-MS/MS analysis.

[3] = iv, Rat PK i.v 3 mg/kg, read-out: Cmax/Co
[4] = po, Rat PK p.o 30 mg/kg, read-out: Cmax

Clint, microsome (=k/Cprotein, μL × min^−1 × mg^−1 proteins) [1] | ke (=−slope, min^−1) [1] [min⁻¹] | half-life at 1 μM [1] [min] | IC50 (rP2X3) [nM] | ACU ([2]; Rat PK i.v 3 mg/kg) [kg·ng·h/mL/mg] | ACU ([2]; Rat PK p.o 30 mg/kg) [kg·ng·h/mL/mg] | clearance ([2]; iv, Rat PK i.v 3 mg/kg) [mL/min/kg] | half-life ([2]; iv, Rat PK i.v 3 mg/kg) [min] | Cmax [2, 3] [ng/mL] | Vd ([2]; iv, Rat PK i.v 3 mg/kg) [L/kg] | Tmax ([2]; po, Rat PK p.o 30 mg/kg) [h] | bioavailability ([2]; po, Rat PK p.o 30 mg/kg) [%] | half-life ([2]; po, Rat PK p.o 30 mg/kg) [min] | Cmax [2, 4] [ng/mL] | Compound
3.8 μL × min^−1 × mg^−1 proteins | 0.0019 | 364 | 165 | 427.84 | 367.68 | 39.2 | 36 | 1750 | 2.05 | 1.8 | 86 | 134 | 4950 | CCOC(=O)N(C)[C@H]1CN(C(=O)N[C@H](C)c2cnc(C(F)(F)F)nc2)N=C1c1ccc(C)cc1 [Compound 4, (S)-4-(N-methyl-N-ethoxycarbonylamino)-3-(4-methylphenyl)-N-((R)-1-(2-(trifluoromethyl)pyrimidin-5-yl)ethyl)-4,5-dihydro-1H-pyrazol-1-carboxamide]
21.4 μL × min^−1 × mg^−1 proteins | 0.0107 | 64.8 | 90 | 275.63 | 766 | 26.5 | 78.6 | 2210 | 2.8 | 0.92 | 36 | 163 | 1450 | Cc1ccc(C2=NN(C(=O)N[C@H](C)c3ccc(C(F)(F)F)nc3)C[C@@H]2N2CCOC2=O)cc1 [Compound 22]
